Experimental data as given in patent US10473662B2, “Diagnostic and prognostic markers for cancer” (Wake Forest University Health Sciences, priority 2009, dated 2019).

Experiments:
[1] = system: HME cells; test: Labile iron pool assay (calcein) in hepcidin-treated cells; type: cell-based, human; conditions: 700 nM hepcidin or vehicle control (FIG. 3B)
Procedure: (§1) Human mammary epithelial (HME) cells were obtained from Lonza (Rockland, Me.). HME cells transduced with h-TERT, SV40 T antigen and high levels of H-ras are termed R5 cells in this report and were a generous gift from the laboratory of Dr. Robert Weinberg, Boston, Mass. (14). All cells were maintained at 37° C. in a humidified atmosphere containing 5% CO2. Cells were maintained in Dulbecco's […] (DMEM-F12) medium (Gibco/BRL [Grand Island, N.Y.]) supplemented with L-glutamine, 10 μg/ml insulin, 10 ng/ml human epidermal growth factor, and 0.5 μg/ml hydrocortisone for 24 hrs prior to harvest. MCF7 and MCF10A cell lines were obtained from the Wake Forest University Comprehensive Cancer Center Tissue Culture Core facility. SUM149 and SUM102 cell lines were a generous gift of Dr. I. Berquin, Wake Forest University School of Medicine. […]
The cellular labile iron pool (LIP) was measured with the fluorescent metallosensor calcein, essentially as described (20). […] Fluorescence was measured at 485 nm excitation and 535 nm emission with a fluorescence plate reader (fmax Fluorescence Microplate Reader, Molecular Devices). After the fluorescence signal was stabilized, SIH was added to remove iron from calcein, causing dequenching. The change in fluorescence following the addition of SIH (ΔF) was used as a measure of the labile iron pool.

[2] = system: ferritin H; test: Western blot of ferritin H in hepcidin-treated cells; type: cell-based, human; conditions: HME cells, 300 nM or 700 nM hepcidin for 6 hours (FIG. 3C)
Procedure: as §1, with “facility.” for “facility. SUM149 and SUM102 cell lines were a generous gift of Dr. I. Berquin, Wake Forest University School of Medicine.”
(§2) Cells were washed once in phosphate-buffered saline (PBS) and scraped. […] Total protein concentrations were determined using BCA reagent (Pierce). […] Ferritin H was detected as previously described (49). Ferroportin was detected using anti-ferroportin-1 antibody (MTP-1, Alpha Diagnostics) followed by horseradish peroxidase conjugated goat anti-rabbit secondary antibody (Bio-Rad). […] Prohepcidin was detected using a rabbit polyclonal antibody (Hepcidin-25 antibody, ab75883, Abcam) followed by horseradish peroxidase conjugated goat anti-rabbit secondary antibody (Bio-Rad). […]

[3] = biological target: T1, ferroportin (Homo sapiens, UniProt Q9NP59); test: Western blot of ferroportin in hepcidin-treated cells; type: cell-based; conditions: HME cells, 300 or 700 nM hepcidin for 6 hours (FIG. 3D)
T1 construct: endogenous in cells; host or cells: primary human mammary epithelial (HME) cells (Lonza)
T1 sequence (Q9NP59 1-571): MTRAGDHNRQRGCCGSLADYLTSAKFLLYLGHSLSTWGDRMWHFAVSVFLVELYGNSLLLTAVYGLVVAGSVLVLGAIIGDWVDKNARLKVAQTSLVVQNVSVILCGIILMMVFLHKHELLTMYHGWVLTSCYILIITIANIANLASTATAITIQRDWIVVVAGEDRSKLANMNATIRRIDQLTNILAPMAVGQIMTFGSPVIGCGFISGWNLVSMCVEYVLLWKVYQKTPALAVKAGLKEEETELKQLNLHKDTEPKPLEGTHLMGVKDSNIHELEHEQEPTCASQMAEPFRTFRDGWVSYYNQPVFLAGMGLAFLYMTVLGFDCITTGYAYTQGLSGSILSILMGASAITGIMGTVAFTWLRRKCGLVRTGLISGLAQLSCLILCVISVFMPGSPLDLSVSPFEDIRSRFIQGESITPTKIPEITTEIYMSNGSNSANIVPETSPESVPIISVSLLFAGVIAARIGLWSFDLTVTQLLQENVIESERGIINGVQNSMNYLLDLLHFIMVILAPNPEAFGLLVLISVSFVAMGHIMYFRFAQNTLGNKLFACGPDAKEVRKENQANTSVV
Procedure: as §1, with “facility.” for “facility. SUM149 and SUM102 cell lines were a generous gift of Dr. I. Berquin, Wake Forest University School of Medicine.”
as §2

## Hepcidin: Peptide hormone that binds ferroportin and triggers its degradation; obtained from Peptides International, dissolved in water
[1]
  labile iron pool: increases the labile iron pool
[2]
  levels of ferritin protein (ferritin H, Western blotting): increases levels of ferritin protein
[3]
  ferroportin protein (Western blotting): Ferroportin is degraded
